Converted amounts (≈) assume the structure as drawn. Read-outs that look alike come from different tables or passages of the source.

Data set [1] in a line: Equilibrium solubility of crystalline DHM in simulated intestinal fluids (FeSSIF, FaSSIF). The class given is physicochemical. To be noted: thermodynamic from solid.
A short description of data set [2]: In vitro release in fed state simulated intestinal fluid (FeSSIF), Example 1, FIG. 3. The data set is classed as physicochemical. To be noted: 37° C., loaded at 1400 μg/mL DHM, 360 minute timepoint. How it is done:
(§1) Release Kinetics in Vitro: Simulated gastric fluid (FaSSGF) and intestinal fluids (FaSSIF and FeSSIF) are prepared according to the manufacturer's instructions. Dissolution tests are performed with spray dried DHM-containing powders or tablets with the appropriate controls. Release under Gastric Conditions: DHM-containing spray dried powder samples are suspended in prewarmed FaSSGF (37° C.) to achieve a drug (DHM) concentration of roughly 10-100× the previously determined equilibrium solubility in the FaSSGF fluid (e.g., 75 μg/mL) by pipetting up and down vigorously multiple times. The samples are incubated for the duration of the study (e.g., 30 min) at 37° C. […] The samples are then diluted as appropriate to fall within the detection range and analyzed by high-performance liquid chromatography (HPLC), with the mobile phase as 80:20 H2O: acetonitrile (each with 0.05% trifluoroacetic acid), and with detection with UV-Vis at 290 nm. The concentration of DHM is then calculated based on a calibration curve. […] The samples are then diluted as appropriate to fall within the detection range and analyzed by HPLC, with the mobile phase as 80:20 H2O: acetonitrile (each with 0.05% trifluoroacetic acid), and with detection with UV-Vis at 290 nm. The concentration of DHM is then calculated based on a calibration curve. […]

A short description of data set [3]: In vitro release in FeSSIF with 1% v/v Tween 20 (Polysorbate 20), Example 2, FIG. 4. The data set is classed as physicochemical. To be noted: FeSSIF + 1% v/v Tween 20, 37° C. On the procedure:
as §1

The conditions of data set [4]: reference [17]; cited from earlier work.
The conditions of data set [5]: low solubility and permeability; cited from earlier work.

For `O=C1c2c(O)cc(O)cc2O[C@H](c2cc(O)c(O)c(O)c2)[C@H]1O` [DHM, dihydromyricetin], the solubility thermodynamic in data set [1] (Fasted State Simulated Intestinal Fluid (FaSSIF), pH 6.5, fassif, fasted state simulated intestinal fluid, pH 6.5, read-out: equilibrium solubility in FaSSIF) is about 0.05 mg/mL (≈ 156 µM); in data set [1] (Fed State Simulated Intestinal Fluid (FeSSIF), pH 5, fessif, fed state simulated intestinal fluid, pH 5.0, read-out: equilibrium solubility in FeSSIF) it was about 0.14 mg/mL (≈ 437 µM). In addition, the “dissolved DHM concentration at completion of the release study” value in data set [2] is “approximately reached its previously determined equilibrium concentration”. Moreover, the “effect of Tween 20 (Polysorbate 20) surfactant on solubility of DHM” value in data set [3] is “increased”. The oral bioavailability entry in data set [4] was “less than 5%”. In addition, the BCS class entry in data set [5] is on record as “BCS class IV”.

The record behind these values is patent publication US20240408050A1, “DIHYDROMYRICETIN SPRAY-DRIED DISPERSION FORMULATIONS AND METHODS FOR FORMING THEM” (The Trustees of Princeton University, priority 2018, published 2024).
